Measurements as given in patent US20060062736A1, “Therapeutic foam” (priority 2003, published 2006).

Assay: In vitro absorption of foam/gas in fresh human venous blood
Type: in vitro ADME
Conditions: 0.5 ml aliquot into 20 ml stirred blood
Experimental: In vitro experiments were conducted to determine the absorption of foam made with different gases in fresh human venous blood.
A 20 ml polypropylene syringe barrel was prepared by puncturing its side wall with a relatively large hypodermic needle to make a hole approximately 1 mm in diameter. This hole was then covered by securing a piece of clear flexible vinyl sheet over it with clear adhesive tape. A small magnetic stirrer element was introduced into the syringe barrel and the plunger then replaced. 20 ml of human venous blood was then with withdrawn in the usual manner from a human subject using the specially prepared syringe fitted with a hypodermic needle.
The hypodermic needle was removed and the syringe then placed on a magnetic stirrer unit so that the magnetic element in the syringe thoroughly agitated the blood. […]
The needle of the 0.5 ml syringe was then introduced through the vinyl sheet on the side wall of the 20 ml syringe. […] It was determined that a distance of 45 intervals on this scale corresponded to an internal volume of in the manometer tubing of approximately 0.5 ml. […]
In this experiment, the air foam test was only observed for a few minutes after tF. However, further experiments have been conducted by the inventors, the results of which are not formally recorded here, involving foam with a percentage of nitrogen. […]

With O=O [Oxygen gas, oxygen] the “Absorbed volume at tF 0.5(y − z)/(y − x)” value was 0.46 mL and the “tF (time at which blood column stopped moving)” value was 140 s.
